According to patent US20240043531A1, “ANTI-CD47 MONOCLONAL ANTIBODY AND USE THEREOF” (Akeso Biopharma, Inc., priority 2021, published 2024):

Key:
Raji cells = assay: ADCP: phagocytosis of Raji cells by HPMMs, combination with obinutuzumab; assay type: cell-based, human; conditions: HPMMs effector, Raji target cells, 37° C. 2 h; FIG. 8
Experimental: PBMCs (prepared by Akeso Biopharma, Inc., Lot No: 20201126-G) were thawed and incubated with 1640 complete medium+10% FBS (Excell bio, Cat. No: FSP500, Lot No: 11I025) overnight. The next day, the medium was changed to 1640 complete medium+2% FBS, and the cells were incubated with the medium for 2 h. The supernatant was removed, and the cells were washed twice with PBS and incubated in an incubator (90% 1640+10% FBS+M-CSF-100 ng/mL) to induce […] (HPMMs). The medium was exchanged and the treatment was given on days 3 and 5. The experiment was performed on day 7 of induction.
Raji cells (purchased from ATCC) were conventionally collected and washed once with PBS. CFSE was diluted to 2.5 μM with PBS. The cells were resuspended in a proper amount of the diluted CFSE to a staining density of 1×10^7 cells/mL and incubated in an incubator for 20 min. 6 mL of 1640 complete medium (containing 10% FBS) was added to stop staining. The cells were centrifuged at 170×g for 5 min, and the supernatant was discarded. 1 mL of 1640 complete medium was added, and the cells were incubated in an incubator for 10 min with the cell density adjusted to 3×10^6 cells/mL. […] 200 μL of 1% PBSA was added to each tube for resuspension, and the cells were transferred to a flow cytometry tube and detected.

[1] = tested on: human Burkitt's lymphoma Raji-PDL1 cells; assay: Immune cell activation: PBMCs co-cultured with Raji-PDL1 cells, cytokine ELISA; assay type: cell-based; conditions: SEB-activated PBMCs + MMC-treated Raji-PDL1 cells, 3 days; FIG. 3
[2] = tested on: CT26-hCD47 cells (mouse colon cancer cells); assay: CT26-hCD47 tumor model in BALB/c-hPD1/hSIRPα mice, tumor volume; assay type: in vivo; conditions: 6F7H1L1(hG4) 5 mg/kg, cadonilimab 0.5 mg/kg, intraperitoneally twice per week for 4 weeks, 7 doses; vs isotype control hIgG4; FIG. 9
Source text: (§1) In order to determine the tumor inhibitory activity in vivo of 6F7H1L1(hG4) antibody in combination with anti-PD-1/anti-CTLA-4 bispecific antibody cadonilimab, female BALB/c-hPD1I/hSIRPα mice aged 6.43-8.43 weeks (purchased from GemPharmatech Co., Ltd.) were grafted subcutaneously with CT26-hCD47 cells (mouse colon cancer cells, purchased from GemPharmatech Co., Ltd.). When the mean tumor volume reached 80-120 mm^3, the mice were randomized into 4 groups of 6 by tumor volume. The day of grouping was defined as D0, and dosing was started on the day of grouping D0. The regimen of the combination therapy group is as follows: the drugs were formulated separately and administered sequentially (no certain order or time interval was required, and one treatment should be given after the completed administration of the other). After the administration, the length and width of tumors in each group were measured, and the tumor volume was calculated. The data were subjected to an independent sample T-test, SPSS 17.0 *P<0.05, **P<0.01.

[3] = CT26-hCD47 tumor model, tolerability and body weight; assay type: in vivo; conditions: 6F7H1L1(hG4) 5 mg/kg, cadonilimab 0.5 mg/kg, i.p.; FIG. 10
Source text: as §1

[4] = tested on: acute myelocytic leukemia (AML) HL-60 cells; assay: ADCP: phagocytosis of HL-60 cells by HPMMs, combination with azacitidine; assay type: cell-based, human; conditions: HPMMs effector, HL-60 target cells treated with azacitidine 3 μM or 1 μM for 24 h; antibodies 10 μg/mL and 1 μg/mL; FIG. 2
Source text: Materials: Azacitidine (purchased from Baxter Oncology GmbH); Hu5F9-G4 (supplied by Akeso Biopharma, Inc.); Raji cells (Chinese Academy of Sciences Shanghai Branch); HL-60 cells (ATCC); RPMI 1640 (Gibco, Cat. No: 22400-105); pancreatin (0.25% Typsin-EDTA (1×)) (Gibco, Cat. No: 25200072); fetal bovine serum (FBS; Excell bio, Cat. No: FSP500); fluorescent dye […] diacetatesuccinimidyl ester (CFSE; Biolegend, Cat. No: 423801); recombinant human macrophage colony-stimulating factor (human M-CSF; PeproTech, Cat. No: 300-25); APC anti-human CD11c antibody (Biolegend, Cat. No: 301614); isotype control (human IgG4; supplied by Akeso Biopharma, Inc.); rituximab (Roche); BSA (Sigma, Cat. No: V900933-1KG); Ficoll paque plus (GE, Cat. No: 17-1440-02). Human peripheral monocyte-derived macrophages (HPMMs) were prepared by inducing PBMCs. Frozen PBMCs were conventionally thawed and incubated in an incubator overnight. […]
Procedures: HL-60 cells were conventionally collected and plated in a 6-well plate at 4×10^5 cells/2 mL of 1640 complete medium per well. […] The next day, the treated and blank HL-60 cells were collected, centrifuged at 170×g for 5 min, resuspended and counted. Then the cells were analyzed for viability and washed once with PBS. […]

[5] = tested on: hematological malignancies and solid tumors; conditions: Chao M P et al., 2016; cited from earlier work

obinutuzumab: anti-human CD20 antibody [reference compound]
phagocytic index (ADCP) (Raji cells): significantly higher than those of the blank control and the isotype controls (human IgG4 and human IgG1)

cadonilimab: anti-PD-1/CTLA-4 bispecific antibody; heavy chain SEQ ID NO: 78, light chain SEQ ID NO: 80 [reference compound]
secretion of IFN-γ in PBMCs [1]: can significantly stimulate the secretion of IFN-γ | inhibition of tumor growth (tumor volume) [2]: can effectively inhibit the growth of tumors in mice | tolerability in tumor-bearing mice [3]: well tolerated

Hu5F9-G4: anti-CD47 monoclonal antibody drug, positive control; heavy chain SEQ ID NO: 85, light chain SEQ ID NO: 86
phagocytic index (ADCP) [4]: significantly higher than those of the blank control and the isotype control (human IgG4) | inhibition of growth and metastasis of tumors in preclinical studies [5]: effectively inhibits the growth and metastasis of hematological malignancies and solid tumors
